In US7612034B2, “Treatment of subnormal bone mineral density” (Genelabs Technologies, Inc., priority 1999, dated 2009):

Columns and labels:
[1] = Stability of DHEA polymorph preparations under ambient conditions; type: physicochemical
[2] = Oral uptake and absorption of DHEA polymorph preparations; conditions: oral administration
[3] = test system: ovarectomized rats; conditions: administration of DHEA to ovarectomized rats; cited from earlier work
[4] = test system: systemic lupus erythematous (SLE) patients; test: Clinical trial data, SLE patients treated with DHEA, BMD; type: in vivo, human; conditions: DHEA 200 mg daily, alone or in combination with prednisone
Source text: Its role in fetal physiology is poorly understood, but it is thought to serve as a precursor for other steroids, leading to androgen and estrogenic steroids. […] However, the administration of DHEA to humans to prevent bone loss or increase bone density is not a recognized treatment for osteoporosis/osteopenia by the medical community.

[5] = test system: postmenopausal women with low bone mass; conditions: cited from earlier work
[6] = test system: Postmenopausal women with osteoporosis; conditions: cited from earlier work
[7] = test system: spine bone mineral density (BMD); conditions: analysis of 16 studies; chronic calcitonin treatment; cited from earlier work

In the case of C[C@]12CC[C@H](O)CC1=CC[C@@H]1[C@@H]2CC[C@]2(C)C(=O)CC[C@@H]12 [DHEA form I, dehydroepiandrosterone], the stability [1] is reported as “highly stable under ambient conditions”.

With C[C@]12CC[C@H](O)CC1=CC[C@@H]1[C@@H]2CC[C@]2(C)C(=O)CC[C@@H]12 [DHEA form II, dehydroepiandrosterone] the rate of absorption [2] was “rapid rate of absorption (greater than the form I polymorph)” and the stability [1] was “stable under ambient conditions”.

In the case of C[C@]12CC[C@H](O)CC1=CC[C@@H]1[C@@H]2CC[C@]2(C)C(=O)CC[C@@H]12 [DHEA, dehydroepiandrosterone], the bone density [3] is given as “increased bone density” and the “improvement of BMD” value [4] is given as “only slight improvement of BMD”.

In the case of NCCCC(O)(P(=O)(O)O)P(=O)(O)O [alendronate], the “increases in BMD compared with calcitonin” value ([5]; alendronate 10 mg, LS and HT at 6 and 12 months (p<0.001), FN at 12 months (p=0.003)) is listed as “significantly greater increases in BMD than did calcitonin” and the “increases in BMD compared with calcitonin” value ([6]; alendronate 10 mg, LS and HT at 6 and 12 months (p<0.001), FN at 12 months (p=0.001)) is listed as “significantly greater increases in BMD than did calcitonin”.

For calcitonin, the “mean increase in spine bone mineral density (BMD)” value [7] is given as 1.97%, the “BMD changes compared with placebo” value ([5]; calcitonin 200 IU daily, LS, HT or FN at 6 or 12 months) is given as “not statistically different from placebo” and the “increases in BMD in total femur and lumbar spine” value ([5]; up to 1 year of therapy, calcitonin 200 IU daily) is given as “only modest increases in BMD”. For the same compound, the “BMD changes compared with placebo at FN” value ([6]; calcitonin 200 IU daily, FN at 6 (p=0.003) and 12 months (p=0.008)) was “statistically different from placebo” and the “BMD changes compared with placebo at LS or HT” value ([6]; calcitonin 200 IU daily, LS or HT at 6 or 12 months) was “not significantly different”.
